Experimental data reported in PubChem BioAssay (NCI).
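These data come from cells grown in 96-well plates and exposed to compound for 48 hours at five concentrations. TGI: total growth inhibition.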

Key:
Experiment in all cases: growth of human tumour cells (NCI), 48 h
[1] = tested on: OVCAR-5 ovarian
[2] = tested on: UACC-257 melanoma
[3] = tested on: SN12C renal
[4] = tested on: MOLT-4 leukemia
[5] = tested on: MDA-N
[6] = tested on: IGROV1 ovarian
[7] = tested on: MALME-3M melanoma
[8] = tested on: LOX IMVI melanoma
[9] = tested on: DU-145 prostate
[10] = tested on: NCI/ADR-RES ovarian
[11] = tested on: HCT-116 colon
[12] = tested on: NCI-H226 lung
[13] = tested on: BT-549 breast

CC(=O)OC[C@@H](OC(C)=O)[C@@H](OC(C)=O)[C@H]1OC[C@@H]2C[C@H]([C@H]1OC(C)=O)N(Cc1ccccc1)O2
TGI [1]: > 100 µM | TGI [2]: > 100 µM | TGI [3]: > 100 µM | TGI [4]: > 100 µM | TGI [5]: > 100 µM | TGI [6]: > 100 µM | TGI [7]: > 100 µM | TGI [8]: > 100 µM | TGI [9]: > 100 µM | TGI [10]: > 100 µM | TGI [11]: > 100 µM | TGI [12]: > 100 µM | TGI [13]: > 100 µM

CC(=O)N1C2=CCCC2(C)c2ccccc21 (configuration not stated)
TGI [1]: > 100 µM | TGI [2]: > 100 µM | TGI [3]: > 100 µM | TGI [4]: > 100 µM | TGI [5]: > 100 µM | TGI [6]: > 100 µM | TGI [7]: > 100 µM | TGI [8]: > 100 µM | TGI [9]: > 100 µM | TGI [10]: > 100 µM | TGI [11]: > 100 µM | TGI [12]: > 100 µM | TGI [13]: > 100 µM

CCN1C[C@]2(C)CC[C@H](OCc3ccccc3)C34C5C[C@@H]6CC[C@](O)(C(C[C@@H]32)C14)C5[C@H]6OCc1ccccc1 (some centres not stated)
TGI [1]: > 100 µM | TGI [2]: > 100 µM | TGI [3]: > 100 µM | TGI [4]: > 100 µM | TGI [5]: > 100 µM | TGI [6]: > 100 µM | TGI [7]: > 100 µM | TGI [8]: > 100 µM | TGI [9]: > 100 µM | TGI [10]: > 100 µM | TGI [11]: > 100 µM | TGI [12]: > 100 µM | TGI [13]: > 100 µM

CCCCc1ccc(Nc2nc(N)c3ncn(COCCO)c3n2)cc1
TGI [1]: > 100 µM | TGI [2]: 44.4 µM | TGI [3]: > 100 µM | TGI [4]: > 100 µM | TGI [5]: > 100 µM | TGI [6]: 60.8 µM | TGI [7]: 52.7 µM | TGI [8]: 37.4 µM | TGI [9]: > 100 µM | TGI [10]: 71.7 µM | TGI [11]: 62.2 µM | TGI [12]: > 100 µM | TGI [13]: 59.8 µM

O=CC1C[C@@H](N2C(=O)O[C@@H](c3ccccc3)[C@H]2c2ccccc2)[C@@H]1COCc1ccccc1 (some centres not stated)
TGI [1]: 52.3 µM | TGI [2]: 41.7 µM | TGI [3]: 48 µM | TGI [4]: 84.4 µM | TGI [5]: 38.1 µM | TGI [6]: 35.4 µM | TGI [7]: 31.5 µM | TGI [8]: 38.6 µM | TGI [9]: 35.7 µM | TGI [10]: 83.6 µM | TGI [11]: 32.8 µM | TGI [12]: 42.2 µM | TGI [13]: 43.3 µM

O=C(NCCN1CCCC1)c1cn2c(ccc3sc4ccccc4c(=O)c32)n1
TGI [1]: 24.2 µM | TGI [2]: 35 µM | TGI [3]: 26.9 µM | TGI [4]: 7.42 µM | TGI [5]: 33.1 µM | TGI [6]: 25 µM | TGI [7]: 31.8 µM | TGI [8]: 3.4 µM | TGI [9]: 26.3 µM | TGI [10]: 31.2 µM | TGI [11]: 8.57 µM | TGI [12]: 38.1 µM | TGI [13]: 35.6 µM

O/N=C1\CCc2cc3c(cc21)CCC3
TGI [1]: > 100 µM | TGI [2]: > 100 µM | TGI [3]: > 100 µM | TGI [4]: > 100 µM | TGI [5]: > 100 µM | TGI [6]: > 100 µM | TGI [7]: > 100 µM | TGI [8]: > 100 µM | TGI [9]: > 100 µM | TGI [10]: > 100 µM | TGI [11]: > 100 µM | TGI [12]: > 100 µM | TGI [13]: > 100 µM

Nc1ncc(CN2CCOCC2)c(-c2ccccc2O)n1
TGI [1]: > 100 µM | TGI [2]: > 100 µM | TGI [3]: > 100 µM | TGI [4]: > 100 µM | TGI [5]: > 100 µM | TGI [6]: > 100 µM | TGI [7]: > 100 µM | TGI [8]: > 100 µM | TGI [9]: > 100 µM | TGI [10]: > 100 µM | TGI [11]: > 100 µM | TGI [12]: > 100 µM | TGI [13]: > 100 µM

N#C/C(=C\c1ccc(Br)cc1)c1nc(-c2cc3ccccc3oc2=O)cs1
TGI [1]: > 50 µM | TGI [2]: 33.2 µM | TGI [3]: > 50 µM | TGI [4]: > 50 µM | TGI [5]: > 50 µM | TGI [6]: > 50 µM | TGI [7]: 27.6 µM | TGI [8]: > 50 µM | TGI [9]: > 50 µM | TGI [10]: 34.4 µM | TGI [11]: > 50 µM | TGI [12]: > 50 µM | TGI [13]: 14.5 µM

CN(C)/C=C/c1nnnn1-c1ccc(I)cc1
TGI [1]: 56.4 µM | TGI [2]: 67.5 µM | TGI [3]: > 100 µM | TGI [4]: 34.1 µM | TGI [5]: 74.2 µM | TGI [6]: 38 µM | TGI [7]: 44.7 µM | TGI [8]: 41.1 µM | TGI [9]: 74.5 µM | TGI [10]: 63.5 µM | TGI [11]: 23.5 µM | TGI [12]: 56.9 µM | TGI [13]: 92 µM

CC(C)c1ccc2[nH]c(O)c(C3=Nc4ccccc4C3=O)c2c1
TGI [1]: > 100 µM | TGI [2]: > 100 µM | TGI [3]: > 100 µM | TGI [4]: 61.5 µM | TGI [5]: > 100 µM | TGI [6]: 65.8 µM | TGI [7]: > 100 µM | TGI [8]: > 100 µM | TGI [9]: 94.5 µM | TGI [10]: > 100 µM | TGI [11]: 68 µM | TGI [12]: 18.7 µM | TGI [13]: 69.6 µM

CN1CCN(CCCCN2c3ccccc3Sc3ccc(N=[N+]=[N-])cc32)CC1
TGI [1]: 22.8 µM | TGI [2]: 4.22 µM | TGI [3]: 26.1 µM | TGI [4]: 7.24 µM | TGI [5]: 6.96 µM | TGI [6]: 23.3 µM | TGI [7]: 6.39 µM | TGI [8]: 7.59 µM | TGI [9]: 26.6 µM | TGI [10]: 30 µM | TGI [11]: 13.7 µM | TGI [12]: 31.7 µM | TGI [13]: 26.9 µM

COc1ccc2c(c1)CCCN1Cc3ccccc3CC21 (configuration not stated)
TGI [1]: > 100 µM | TGI [2]: > 100 µM | TGI [3]: > 100 µM | TGI [4]: > 100 µM | TGI [5]: > 100 µM | TGI [6]: > 100 µM | TGI [7]: > 100 µM | TGI [8]: > 100 µM | TGI [9]: > 100 µM | TGI [10]: > 100 µM | TGI [11]: > 100 µM | TGI [12]: > 100 µM | TGI [13]: > 100 µM

O=C1c2ccccc2-c2c1c(-c1ccccc1)c1n2C2(C(=O)c3ccccc3C2=O)C2C(=O)N(c3ccccc3)C(=O)C12 (configuration not stated)
TGI [1]: > 100 µM | TGI [2]: > 100 µM | TGI [3]: 61.4 µM | TGI [4]: > 100 µM | TGI [5]: 65.3 µM | TGI [6]: > 100 µM | TGI [7]: 51.9 µM | TGI [8]: 32.8 µM | TGI [9]: > 100 µM | TGI [10]: > 100 µM | TGI [11]: 37.8 µM | TGI [12]: 43.5 µM | TGI [13]: 45.2 µM
